# Biological target: T1, mouse GOAT (Mus musculus, UniProt P0C7A3)
# T1 construct: made in house; host or cells: sf9 insect cells (baculovirus, pFastBac1-mouseGOAT); total membrane fraction, not purified
# T1 sequence (P0C7A3 1-435): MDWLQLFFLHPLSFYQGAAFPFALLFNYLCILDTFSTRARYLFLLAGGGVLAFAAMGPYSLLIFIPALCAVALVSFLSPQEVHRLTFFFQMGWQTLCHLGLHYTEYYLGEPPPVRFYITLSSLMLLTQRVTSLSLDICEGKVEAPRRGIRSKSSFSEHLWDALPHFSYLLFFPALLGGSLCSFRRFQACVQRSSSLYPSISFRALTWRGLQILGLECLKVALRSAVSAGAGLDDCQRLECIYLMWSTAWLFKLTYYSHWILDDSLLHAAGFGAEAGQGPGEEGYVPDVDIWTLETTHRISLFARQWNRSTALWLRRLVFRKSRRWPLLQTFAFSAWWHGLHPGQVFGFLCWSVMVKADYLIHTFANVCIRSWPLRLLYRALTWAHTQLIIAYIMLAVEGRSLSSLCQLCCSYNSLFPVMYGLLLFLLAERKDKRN
# Assay: Acyltransferase assay: inhibition of proghrelin octanoylation by GOAT in sf9 membrane fractions
# Assay type: biochemical
# Settings: for IC50: sf9 membranes containing mouse GOAT, [3H]octanoyl CoA, proghrelin8His, read-out: IC50 (GOAT, membrane fraction, in-house); for GOAT inhibition in vitro (in words): membrane fractions
# Protocol: pFastBac1-mouseGOAT and pGEX-GST-proGhrelin8His plasmid encoding for mouse proghrelin, fused to GST with TEV cleavage site to release proghrelin moiety, was a kind gift from the Brown and Goldstein laboratory. The BL21Gold E. coli chemically competent cells were transformed with the pGEX-GST-proGhrelin8His plasmid and selected on agar plates with ampicillin. A few colonies were used to inoculate 50 mL LB, and cultures were grown overnight at 37 °C. The next morning, 10 mL of overnight culture was used to inoculate 1L LB. A total of 4 flasks with 1L LB each were inoculated with 10 mL of the overnight culture, and bacterial cultures were grown at 37 °C until they reached OD600 ~ 0.6. The cultures were chilled on ice for 30 min and then 0.25 mM of IPTG was added to each culture. The cultures were then moved back to a shaker set to 18 °C and incubated overnight. Cells were harvested and resuspended in 200 mL buffer containing 25 mM Tris-HCl pH 8.0, 150 mM NaCl, 1 mM EDTA and 0.5 mg/mL lysozyme. The cell suspension was sonicated, and cell debris was removed by centrifugation. The soluble fraction was passed through glutathione resin by gravity. The resin was washed with 75 mL of lysis buffer without lysozyme. The GST-proGhrelin8His protein was eluted with lysis buffer without lysozyme, supplemented with 15 mM reduced glutathione, GSH. About 50 mg of target protein, as evaluated by SDS-PAGE, was eluted. The eluate was supplemented with 1 mM DTT and about 7.5 mg of recombinant GST-TEV protease (see below) was added. The solution was incubated at 16 °C overnight to allow complete release of proghrelin8His from GST. Prior to Ni-NTA chromatography, 5 mM CaCl2 was added, and the solution was spun down at 4000× g for 10 min. After elution from Ni-NTA resin, protein solution was dialyzed against buffer containing 10 mM Tris-HCl pH 8.5, 50 mM NaCl, 10% glycerol and 0.01% CHAPS using 3 kDa cutoff membrane with 3 buffer exchanges. The protein was quantified by absorbance at A280 and qualified by SDS-PAGE.
# The baculovirus expression of mouse GOAT. DH10Bac E. coli strain (ThermoFisher, Waltham, MA, USA) was transformed with pFastBac1-mouseGOAT plasmid, and Bacmid DNA from 12 white colonies was analyzed by DNA sequencing and PCR reaction. All clones were transfected to sf9 cells and level of mGOAT expression was compared between clones from cells producing P2. The clone with the highest mGOAT expression level was used to produce P3. For membrane isolation, sf9 cells were seeded at 2–4 × 10^6 /mL in total 1 L volume of sf-900 serum-free medium (ThermoFisher) and infected with P3 virus. At day 2 post-infection, cells were harvested and resuspended in 40 mL of buffer containing 50 mM NaPi pH 7.2, 150 mM NaCl, 1 mM EDTA, 100 μM bis (4-nitrophenyl) phosphate, 2.5 μg/mL aprotinin, 10 μg/mL leupeptin, 10 μg/mL pepstatin A. Cell suspension was briefly sonicated and cell debris was removed by centrifugation at 3000× g for 10 min. Membrane fraction was collected from supernatant by centrifugation at 100,000× g for 1 h. Membrane pellet was resuspended in storage buffer (50 mM NaPi pH 7.2, 150 mM NaCl and 10% glycerol) and kept at −80 °C. Acyltransferase assay: The assay conditions included per 50 μL reaction: 50 μg of total sf9 membranes, various (for modality experiment) or fixed (for IC50) concentrations of recombinant proghrelin8His peptide and various concentrations of tested compound (for IC50), 100 μM palmitoyl CoA, 50 mM HEPES pH 7.0 and 1 μM [^3H] octanoyl CoA (~5.5 dpm/fmol—American Radioactive Chemicals). After incubation of the reaction mixture at 37C for 10 min, tubes were placed on ice and 10 μL of 1M HCl was added to each tube. Following the addition of 740 μL of cold quench buffer (50 mM NaPi pH 7.4, 10 mM Imidazole, 150 mM NaCl, 100 μM bis (4-nitrophenyl) phosphate, 1 mM phenylmethylsulfonyl fluoride and 0.1% Triton), 0.2 mL of 50% Ni-NTA slurry was added to each reaction. […]
Compound,IC50 [nM],GOAT inhibition in vitro (in words)
Cc1nc(Cl)nc(N)c1CCC1CCN(C(=O)[C@H](C)NC(=O)c2ccnn2C)CC1 [compound 5],88,
"CNC(=O)c1cccc(Cc2c(C)nc3nonc3c2N)n1 [compound 6, reference compound]",64,
"CCCCOCC(=O)N1CCC(CCc2c(C)nc3nonc3c2N)CC1 [compound 10, 1-(4-(2-(7-amino-5-methyl-[1,2,5]oxadiazolo[3,4-b]pyridin-6-yl)ethyl)piperidin-1-yl)-2-butoxyethan-1-one]",63,as potently as did 5 and 6
"Cc1nc2nonc2c(N)c1CCC1CCN(C(=O)[C@H](C)NC(=O)c2ccnn2C)CC1 [compound 11, (S)-N-(1-(4-(2-(7-amino-5-methyl-[1,2,5]oxadiazolo[3,4-b]pyridin-6-yl)ethyl)pip-eridin-1-yl)-1-oxopropan-2-yl)-1-methyl-1H-pyrazole-5-carboxamide]",84,as potently as did 5 and 6

# Reference: article PMC8709388, “In Search of Small Molecules That Selectively Inhibit MBOAT4” (Molecules, 2021)
